Common to all, as to assay type: functional, cell-based
The nature of experiment [1]: Cytotoxicity against human H522-T1 cells after 96 hrs by CellTire-Glo luminescent assay. Particulars: H522-T1, 96 h.
In a further experiment the test system is A2780. Put plainly: Cytotoxicity against human A2780 cells after 2 days by alamar Blue assay. Particulars: A2780, 48 h. (In general: Resazurin is reduced to fluorescent resorufin, in cell work by metabolically active cells.)
A further experiment deals with A2058. The experiment is described as follows: Cytotoxicity against human A2058 cells after 96 hrs by CellTire-Glo luminescent assay. To be noted: A2058, 96 h.

A value given as a limit tells only on which side of the number the result lay.

Broadly, the IC50 is the concentration needed to halve the response being measured. High values mean weaker potency, low ones greater potency.

With `CC(=O)C1=CC[C@H]2[C@]3(C)CC[C@H]4C(C)(C)CCC[C@]4(CO)[C@H]3C[C@H](O)[C@]2(C)[C@@H]1C=O` (relative stereo), the IC50 in experiment [1] amounted to 1700 nM; in the experiment with A2780 it was 260 nM; with A2058 it was 1830 nM.

Turning to `CC(=O)O[C@H]1C[C@H]2[C@@](C)(CC[C@H]3C(C)(C)CCC[C@@]32CO)[C@@H]2CC=C(C(C)=O)[C@H](C=O)[C@@]12C`, the concentration for half-maximal inhibition (IC50) in the experiment with A2780 was found to be 650 nM.

Regarding `CC(=O)O[C@H]1C(=O)[C@@]2(C)[C@H]([C@H](OC(=O)c3ccccc3)[C@]3(O)C[C@H](OC(=O)[C@H](O)[C@@H](NC(=O)c4ccccc4)c4ccccc4)C(C)=C1C3(C)C)[C@]1(OC(C)=O)CO[C@@H]1C[C@@H]2O` [PACLITAXEL], the concentration for half-maximal inhibition (IC50) in experiment [1] is 8.1 nM; in the experiment with A2780, 12 nM; with A2058, 4.7 nM.

For the compound `CC(=O)C1=CC[C@H]2[C@]3(C)CC[C@H]4C(C)(C)CCC[C@]4(CO)[C@H]3C[C@@H](O)[C@]2(C)[C@H]1C=O` (relative stereo), the concentration for half-maximal inhibition (IC50) in experiment [1] was 610 nM; in the experiment with A2780, 280 nM; in the experiment on A2058, more than 370 nM.

Consider `CC1(O)OC(=O)C2=C1CC[C@H]1[C@]3(C)CC[C@H]4C(C)(C)CCC[C@]4(CO)[C@H]3C[C@@H](O)[C@]21C` (stereo partly specified), for which the IC50 was more than 10000 nM in experiment [1], 8700 nM with A2780 and more than 10000 nM in the experiment with A2058.

As for `CC1(C)CCC[C@@]2(CO)[C@H]1CC[C@]1(C)[C@@H]2C[C@@H](O)[C@]2(C)[C@H]3C=CC(=O)C3=CC[C@@H]12` (relative stereo), the IC50 in experiment [1] stood at 5280 nM; in the experiment with A2780, 4500 nM; with A2058, 4170 nM.
